From PMC9688344, “[^225Ac]Ac-SibuDAB for Targeted Alpha Therapy of Prostate Cancer: Preclinical Evaluation and Comparison with [^225Ac]Ac-PSMA-617” (Cancers, 2022)

Test system: immunocompetent FVB mice
Test: Tolerability study in immunocompetent mice
Assay type: in vivo
Source text: Five- to six-week-old immunocompetent, female FVB mice were purchased from Charles River Laboratories (Sulzfeld, Germany). After an acclimatization period of at least 7 days, the mice (n = 5 per group) were intravenously injected with 30 kBq [^225Ac]Ac-SibuDAB or 30 kBq [^225Ac]Ac-PSMA-617 and additional mice (n = 7 per group) remained untreated as controls. Mice were monitored by measuring their body mass and potential signs of pain or unease three times a week (Supplementary Material: Section S7). The mice were euthanized on Day 10, Day 28 or on Day 56, respectively, and variable parameters were assessed from blood and tissue samples.
Hematological analysis was performed using blood samples taken by cardiac puncture immediately after euthanasia. Blood and bone marrow smears were prepared and stained using the Pappenheim protocol. The assessment was carried out by a board-certified veterinary anatomic pathologist (AnaPath Services GmbH, Liestal, Switzerland). Blood plasma parameters were determined in plasma after centrifugation of blood samples obtained shortly before euthanasia (Supplementary Material: Section S7).
Tissue sections of formalin-fixed paraffin-embedded (FFPE) spleen, salivary glands and kidneys were prepared and stained with hematoxylin and eosin (H&E) by AnaPath Services GmbH (Liestal, Switzerland). The tissues were analyzed by a board certified veterinary pathologist using a pre-defined scoring system (Supplementary Material: Section S7). […]
The percentage of radioligand bound to mouse or human plasma (A bound) was plotted against the molar ratios of MSA/HSA to radioligand and fitted with a nonlinear regression curve (specific binding with Hill slope, Bmax set to 100%) using GraphPad Prism software (version 8) to obtain the half maximum binding (B 50).
Results: The results are reported in the main article.
Purpose: A tolerability study with normal, immunocompetent FVB mice was con-ducted in order to assess potential side effects to the bone marrow, spleen, salivary glands and kidneys after the application of high activities of the 225Ac-labeled PSMA radioligands.
Methods: Monitoring Body Mass and Signs of Unease: Mice were monitored by meas-uring their body mass (BM) three times a week. The body masses were expressed as the relative body mass, defined as [BMx/BM0], where BMx is the body mass in grams on a given Day x and BM0 is the body mass in grams on Day 0. Endpoint criteria, defined as (i) >15% loss in body mass, (ii) signs of unease and pain or a combination thereof based on a scoring system, were not reached in this stu dy.
Hematology: Blood cell counts were determined in blood samples taken by cardiac puncture immediately after euthanasia and collected in EDTA tubes (Microvette® 100 K3 EDTA, Sarstedt, Germany). Leukocyte, lymphocyte, erythrocyte and thrombocyte counts as well as hemoglobin and hematocrit values were determined using a hematology ana-lyzer (VetScan HM5, Abaxis, United States). Blood smears were prepared on glass slides with cardiac blood. The bone marrow was collected from the femur, diluted in FCS/H2O (2:1 v/v) and smeared onto microscopy slides using a paintbrush. The slides were stained with a May Grünwald solution and subsequently with diluted Giemsa solution using the Pappenheim method and covered with coverslips using mounting medium (Pertex).
The assessment of potential morphological ch anges of the blood cells and counting of the subgroups of leukocytes was performed by a board-certified veterinary pathologist (Ana-Path Services GmbH, Liestal, Switzerland).
Histopathological Analysis: Spleen, salivary glands and kidneys were formalin-fixed and paraffin-embedded. Tissue sections were stained with hematoxylin & eosin (H&E) […]
Blood Plasma Parameters: Blood plasma parameters were determined in plasma ob-tained from centrifuged retrobulbar blood samples collected in lithium-heparin tubes (Mi-crovette® 200 LH, SARSTEDT). The concentrations of blood urea nitrogen (BUN), alkaline […]

Compound: O=C([O-])CN1CCN(CC(=O)[O-])CCN(CC(=O)NCC2CCC(C(=O)NC(Cc3ccc4ccccc4c3)C(=O)NCCCCC(NC(=O)NC(CCC(=O)O)C(=O)O)C(=O)O)CC2)CCN(CC(=O)[O-])CC1.[225Ac+3] (stereo not drawn) [[^225Ac]Ac-PSMA-617]
- Tolerability (body mass) (30 kBq per mouse, until Day 56): well tolerated
- Kidneys: Hyperplasia/hypertrophy, tubular, incidence (Day 10, 30 kBq): 2
- Kidneys: Hyperplasia/hypertrophy, tubular, score average (Day 10, 30 kBq): 1.0
- Kidneys: Hypertrophy/hyperplasia, tubular with ectasia, incidence (Day 10, 30 kBq): 0
- Kidneys: Hypertrophy/hyperplasia, tubular with ectasia, score average (Day 10, 30 kBq): 0.0
- Kidneys: Inflammatory cells, interstitium, incidence (Day 10, 30 kBq): 0
- Kidneys: Inflammatory cells, interstitium, score average (Day 10, 30 kBq): 0.0
- Kidneys: Inflammatory cells, pelvis, incidence (Day 10, 30 kBq): 0
- Kidneys: Inflammatory cells, pelvis, score average (Day 10, 30 kBq): 0.0
- Kidneys: Mineralization, papilla, incidence (Day 10, 30 kBq): 0
- Kidneys: Mineralization, papilla, score average (Day 10, 30 kBq): 0.0
- Kidneys: Tubular basophilia, incidence (Day 10, 30 kBq): 0
- Kidneys: Tubular basophilia, score average (Day 10, 30 kBq): 0.0
- Salivary glands: Ductal hyperplasia with inflammatory cells, incidence (Day 10, 30 kBq): 0
- Salivary glands: Ductal hyperplasia with inflammatory cells, score average (Day 10, 30 kBq): 0.0
- Salivary glands: Hypertrophy acinar, sublingual, incidence (Day 10, 30 kBq): 0
- Salivary glands: Hypertrophy acinar, sublingual, score average (Day 10, 30 kBq): 0.0
- Salivary glands: Mononuclear cell foci, incidence (Day 10, 30 kBq): 1
- Salivary glands: Mononuclear cell foci, score average (Day 10, 30 kBq): 1.0
- Salivary glands: Necrosis, multifocal, serous acinar cells, incidence (Day 10, 30 kBq): two out of five
- Salivary glands: Necrosis, multifocal, serous acinar cells, score average (Day 10, 30 kBq): 1.0
- Salivary glands: Vacuolation, incidence (Day 10, 30 kBq): 0
- Salivary glands: Vacuolation, score average (Day 10, 30 kBq): 0.0
- Spleen: Extramedullary hematopoiesis, incidence (Day 10, 30 kBq): 5
- Spleen: Extramedullary hematopoiesis, score average (Day 10, 30 kBq): 1.0
- Spleen: Hyperplasia, lymphoid, incidence (Day 10, 30 kBq): 1
- Spleen: Hyperplasia, lymphoid, score average (Day 10, 30 kBq): 1.0
- Spleen: Pigment, incidence (Day 10, 30 kBq): 5
- Spleen: Pigment, score average (Day 10, 30 kBq): 1.0
- mice with relative increase of neutrophilic blasts (metamyelocytes) in peripheral blood (Day 10, 30 kBq): two out of five
- myelopoiesis in bone marrow smears (group value) (Day 10, 30 kBq): 62%
- Salivary glands: Necrosis, multifocal, serous acinar cells, incidence (Day 10, 30 kBq, listed as [225Ac]Ac-PSMA-617): 2
- Blood smear, Notes (Day 10, mouse M1): More neutrophilic blasts (Metamyelocyte)
- Bone marrow % E (Day 10, mouse M1): 50%
- Bone marrow % M (Day 10, mouse M1): 50%
- Blood smear, Notes (Day 10, mouse M2): More neutrophilic blasts (Metamyelocyte)
- Bone marrow % E (Day 10, mouse M2): 60%
- Bone marrow % M (Day 10, mouse M2): 40%
- Bone marrow % E (Day 10, mouse M3): 20%
- Bone marrow % M (Day 10, mouse M3): 80%
- Bone marrow smear, Notes (Day 10, mouse M3): More blasts, neutrophilic row
- Bone marrow % E (Day 10, mouse M4): 30%
- Bone marrow % M (Day 10, mouse M4): 70%
- Bone marrow smear, Notes (Day 10, mouse M4): More blasts, neutrophilic row
- Bone marrow % E (Day 10, mouse M5): 30%
- Bone marrow % M (Day 10, mouse M5): 70%
- Bone marrow smear, Notes (Day 10, mouse M5): More blasts, neutrophilic row
- Albumin concentration in blood plasma (Day 28, 30 kBq): 23 g/L
- Blood urea nitrogen (Day 28, 30 kBq): 8.7 ± 1.1 mmol/L
- Erythrocyte counts (Day 28, 30 kBq): 8.7 ± 0.3 × 10^12/L
- Hematocrit (Day 28, 30 kBq): 43 ± 3%
- Hemoglobin (Day 28, 30 kBq): 11.3 ± 0.5 g/dL
- Kidneys: Hyperplasia/hypertrophy, tubular, incidence (Day 28, 30 kBq): 1
- Kidneys: Hyperplasia/hypertrophy, tubular, score average (Day 28, 30 kBq): 1.0
- Kidneys: Hypertrophy/hyperplasia, tubular with ectasia, incidence (Day 28, 30 kBq): 0
- Kidneys: Hypertrophy/hyperplasia, tubular with ectasia, score average (Day 28, 30 kBq): 0.0
- Kidneys: Inflammatory cells, interstitium, incidence (Day 28, 30 kBq): 0
- Kidneys: Inflammatory cells, interstitium, score average (Day 28, 30 kBq): 0.0
- Kidneys: Inflammatory cells, pelvis, incidence (Day 28, 30 kBq): 0
- Kidneys: Inflammatory cells, pelvis, score average (Day 28, 30 kBq): 0.0
- Kidneys: Mineralization, papilla, incidence (Day 28, 30 kBq): 1
- Kidneys: Mineralization, papilla, score average (Day 28, 30 kBq): 1.0
- Kidneys: Tubular basophilia, incidence (Day 28, 30 kBq): 1
